Counter-ions that a name gives are not always drawn.

Usually IC50 stands for the concentration that inhibits the measured activity by half.

This assay addresses T1, recombinant purified human EHMT2 913-1193 (Homo sapiens, UniProt Q96KQ7).
T1 construct: Recombinant purified human EHMT2 913-1193 (55 μM) synthesized by Viva was used for all experiments; purchased Viva
T1 sequence (Q96KQ7 913-1193): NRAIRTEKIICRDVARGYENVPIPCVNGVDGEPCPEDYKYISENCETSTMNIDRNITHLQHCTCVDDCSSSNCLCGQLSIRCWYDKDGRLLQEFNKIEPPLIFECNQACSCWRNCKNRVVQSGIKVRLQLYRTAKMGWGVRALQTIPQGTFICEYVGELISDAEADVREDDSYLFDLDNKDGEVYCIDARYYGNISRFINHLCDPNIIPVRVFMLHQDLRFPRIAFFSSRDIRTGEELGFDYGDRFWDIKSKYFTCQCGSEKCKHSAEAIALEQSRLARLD
Description: EHMT2 enzyme assay on histone peptide substrate (3H-SAM Flashplate). Type of assay: biochemical. The settings on record: read-out: EHMT2 PEP (IC50 μM). The essentials: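 Compounds (10-point 3-fold series, top 50 μM final, 2% DMSO) preincubated 30 min with 0.031 nM EHMT2 in 20 mM Bicine pH 7.5, 1 mM TCEP; reaction started with 3H-SAM and biotinylated H3 1-15 peptide, both at Km, run 60 min at room temperature. Flashplate capture; IC50 from four-parameter fit, triplicates.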
With `CNc1cc(C)nc(Nc2ccc(OC)c(-n3cc4c(n3)CCN(C)C4)c2)n1` [Compound 2], the IC50 was below 0.1 µM.
The result for `CNc1cc(C)nc(Nc2ccc(OC)c(-n3cc4c(n3)CN(C)CC4)c2)n1` [Compound 3] reads 1 to 10 µM.
Regarding `CNc1cc(C)nc(Nc2ccc(OC)c(-n3ccc(CN4CCCC4)n3)c2)n1` [Compound 4, trifluoroacetic acid], the IC50 was 1 to 10 µM.
On to `CNc1cc(C)nc(Nc2ccc(OC)c(-n3cc(CN4CCCC4)cn3)c2)n1` [Compound 5, 2-N-[4-methoxy-3-[4-(pyrrolidin-1-ylmethyl)-1H-pyrazol-1-yl]phenyl]-4-N,6-dimethylpyrimidine-2,4-diamine], for which the IC50 lay in the range of 1 to 10 µM.
The result for `CNc1cc(C)nc(Nc2ccc(OC)c(-n3cc4ccncc4n3)c2)n1` [Compound 41] reads above 10 µM; that for `CNc1cc(C)nc(Nc2ccc(OC)c(-c3ccc4cc[nH]c4n3)c2)n1` [Compound 42], above 10 µM.
`CNc1cc(C)nc(Nc2ccc(OC)c(-n3cc4c(n3)CCOC4)c2)n1` [Compound 43]: the IC50 was above 10 µM.
In the case of `CNc1cc(C)nc(Nc2ccc(OC)c(-c3nc4cnccc4[nH]3)c2)n1` [Compound 47] it was 1 to 10 µM.
Take `CNc1cc(C)nc(Nc2ccc(OC)c(-c3cc4cnccc4[nH]3)c2)n1` [Compound 48]: the IC50 lay in the range of 0.1 to 1 µM.
For `CCn1cc(NC(=O)c2cc(Nc3nc(C)cc(NC)n3)ccc2OC)cn1` [Compound 49], the IC50 was above 10 µM.
In the case of `CNc1cc(C)nc(Nc2cnc(OC)c(-n3cc4c(n3)CCNC4)c2)n1` [Compound 50] it was 0.1 to 1 µM; in that of `CNc1cc(C)nc(Nc2ccc(OC)c(-n3cc4c(n3)CCCN4)c2)n1` [Compound 56, N2-(4-methoxy-3-(4,5,6,7-tetrahydro-2H-pyrazolo[4,3-b]pyridin-2-yl)phenyl)-N4,6-dimethylpyrimidine-2,4-diamine hydrochloride], above 10 µM; in that of `CNc1cc(C)nc(Nc2cnc(OC)c(-n3cc4c(n3)CCN(C)C4)c2)n1` [Compound 57], 1 to 10 µM.
The result for `CNc1cc(C)nc(Nc2cnc(OC)c(-c3nc4cnccn4n3)c2)n1` [Compound 60] reads above 10 µM; that for `CNc1cc(C)nc(Nc2ccc(OC)c(-n3cnc(CN(C)C)n3)c2)n1` [Compound 61], above 10 µM.
As to `CNc1cc(C)nc(Nc2cnc(OC)c(-n3cnc(CN(C)C)n3)c2)n1` [Compound 62], the half-maximal inhibitory concentration (IC50) was above 10 µM.
The result for `CNc1cc(C)nc(Nc2cc(-n3cc4c(n3)CCN(C)C4)c(OC)cn2)n1` [Compound 65] reads above 10 µM; that for `CNc1cc(C)nc(Nc2ccc(OC)c(-n3cc(CN(C)C)nn3)c2)n1` [Compound 66], 0.1 to 1 µM.
The result for `CNc1cc(C)nc(Nc2ccc(OC)c(-n3cnc(CN4CCC4)n3)c2)n1` [Compound 67] reads above 10 µM.
As for `CNc1cc(C)nc(Nc2ccc(OC)c(-n3cnc(CN4CC(F)C4)n3)c2)n1` [Compound 68], the IC50 was above 10 µM.
In the case of `CNc1cc(C)nc(Nc2ccc(OC)c(-n3cc4c(n3)CCN(C3COC3)C4)c2)n1` [Compound 69] it was above 10 µM; in that of `CCN1CCc2nn(-c3cc(Nc4nc(C)cc(NC)n4)ccc3OC)cc2C1` [Compound 70], 0.1 to 1 µM; in that of `CNc1cc(C)nc(Nc2ccc(OC)c(-c3nnc(CN(C)C)[nH]3)c2)n1` [Compound 73], above 10 µM.
Regarding `CNc1cc(C)nc(Nc2cnc(OC)c(-n3cc(CN(C)C)cn3)c2)n1` [Compound 74], the IC50 was 0.1 to 1 µM.
As for `CNc1cc(C)nc(Nc2ccc(OC)c(-n3ncc4c3CN(C(C)=O)CC4)c2)n1` [Compound 75], the IC50 is above 10 µM.
On to `CNc1cc(C)nc(Nc2ccc(OC)c(-n3nccc3CNC(C)=O)c2)n1` [Compound 76], for which the IC50 was above 10 µM.
`CNc1cc(C)nc(Nc2ccc(OC)c(-c3nnc4n3CCN(C(=O)OC(C)(C)C)C4)c2)n1` [Compound 77]: the IC50 is above 10 µM.
For `CNc1cc(C)nc(Nc2ccc(OC)c(-c3nc4c([nH]3)CNCC4)c2)n1` [Compound 78], the IC50 lay within 1 to 10 µM.
In the case of `CNc1cc(C)nc(Nc2ccc(OC)c(-c3nc4c([nH]3)CN(C)CC4)c2)n1` [Compound 79] it was 1 to 10 µM; in that of `CNc1cc(C)nc(Nc2ccc(OC)c(-n3cc(C)c4c3CCN(C)C4)c2)n1` [Compound 81], 1 to 10 µM.
As to `CNc1cc(C)nc(Nc2ccc(OC)c(-n3cc4c(n3)CCN(C3CC3)C4)c2)n1` [Compound 82], the IC50 was in the range of 0.1 to 1 µM.
In the case of `COc1ncc(Nc2nc(C)cc(NCC3COC3)n2)cc1-n1cc(CN(C)C)nn1` [Compound 86] it was above 10 µM.
In the case of `CNC(=O)CCNc1cc(C)nc(Nc2ccc(OC)c(-n3cc4c(n3)CCN(C)C4)c2)n1` [Compound 87] it was 0.1 to 1 µM; in that of `CNC(=O)N1CC(CNc2cc(C)nc(Nc3ccc(OC)c(-n4cc5c(n4)CCN(C)C5)c3)n2)C1` [Compound 88], 0.1 to 1 µM.
The result for `CNc1cc(C)nc(Nc2ccc(OC)c(-c3cc4cnccn4n3)c2)n1` [Compound 93] reads above 10 µM; that for `CNc1cc(C)nc(Nc2ccc(OC)c(-n3cc(C)c(CNC(C)=O)n3)c2)n1` [Compound 94], above 10 µM.
As for `CNc1cc(C)nc(Nc2ccc(OC)c(-n3ccc(CNC(C)=O)n3)c2)n1` [Compound 95], the IC50 was above 10 µM.
As to `CNc1cc(C)nc(Nc2ccc(OC)c(-n3ccc(CN(C)C(C)=O)n3)c2)n1` [Compound 96], the IC50 was above 10 µM.
The result for `CNc1cc(C)nc(Nc2ccc(OC)c(-n3cc4c(C)nccc4n3)c2)n1` [Compound 99] reads 1 to 10 µM; that for `CNc1cc(C)nc(Nc2ccc(OC)c(-n3cc4c(OC)nccc4n3)c2)n1` [Compound 100], above 10 µM; that for `CNc1cc(C)nc(Nc2ccc(OC)c(-n3cc(C)c(CN(C)C)n3)c2)n1` [Compound 102], 1 to 10 µM.
The result for `CNC(=O)c1cn(-c2cc(Nc3nc(C)cc(NC)n3)ccc2OC)nc1C` [Compound 103] reads above 10 µM; that for `CNC(=O)c1cnn(-c2cc(Nc3nc(C)cc(NC)n3)ccc2OC)c1` [Compound 104], above 10 µM; that for `CNC(=O)c1c(C)nn(-c2cc(Nc3nc(C)cc(NC)n3)ccc2OC)c1C` [Compound 105], above 10 µM.
Consider `CNCc1c(C)nn(-c2cc(Nc3nc(C)cc(NC)n3)ccc2OC)c1C` [Compound 106], for which the half-maximal inhibitory concentration (IC50) is above 10 µM.
The result for `CNc1cc(C)nc(Nc2ccc(OC)c(-n3cc(CN(C)C)cn3)c2)n1` [Compound 109, N2-(3-(4-((dimethylamino)methyl)-1H-pyrazol-1-yl)-4-methoxyphenyl)-N4,6-dimethylpyrimidine-2,4-diamine] reads below 0.1 µM; that for `CNc1cc(C)nc(Nc2ccc(OC)c(-n3ncc4c3CCNC4)c2)n1` [Compound 113, N2-(4-methoxy-3-(4,5,6,7-tetrahydro-1H-pyrazolo[4,3-c]pyridin-1-yl)phenyl)-N4,6-dimethylpyrimidine-2,4-diamine], below 0.1 µM; that for `CNc1cc(C2CCOCC2)c2cc(OC)c(-n3cc(CN(C)C)nn3)cc2n1` [Compound 116], 1 to 10 µM.
Turning to `CNC(=O)c1cn(-c2cc(Nc3nc(C)cc(NC)n3)ccc2OC)nn1` [Compound 117], the IC50 was above 10 µM.
With `CNc1cc(C)nc(Nc2ccc(OC)c(-n3ncc4ncccc43)c2)n1` [Compound 119], the half-inhibitory concentration (IC50) is above 10 µM.
As for `CNc1cc(C)nc(Nc2ccc(OC)c(-n3cc(CN4CCC4)nn3)c2)n1` [Compound 121], the concentration for half-maximal inhibition (IC50) fell in the range of 0.1 to 1 µM.
Regarding `CNCc1cn(-c2cc3nc(NC)cc(C)c3cc2OC)nn1` [Compound 122], the concentration for half-maximal inhibition (IC50) lay within 1 to 10 µM.
In the case of `CNc1cc(C)c2cc(OC)c(-n3cc(C4CCCN4)nn3)cc2n1` (stereo not shown) [Compound 125] it was 0.1 to 1 µM; in that of `CNC(=O)c1nn(-c2cc(Nc3nc(C)cc(NC)n3)ccc2OC)cc1C` [Compound 134], above 10 µM.
With `CNc1cc(C)nc(Nc2ccc(OC)c(-n3cc(C4CCCN4C)nn3)c2)n1` (stereo not shown) [Compound 136], the IC50 lay in the range of 0.1 to 1 µM.
In the case of `CNc1cc(C)nc(Nc2ccc(OC)c(-n3cc(C4CCCN4)nn3)c2)n1` (stereo not shown) [Compound 137, N2-(4-methoxy-3-(4-(pyrrolidin-2-yl)-1H-1,2,3-triazol-1-yl)phenyl)-N4,6-dimethylpyrimidine-2,4-diamine] it was below 0.1 µM; in that of `CNc1cc(C)nc(Nc2ccc(OC)c(-n3nnc(C)c3CN(C)C)c2)n1` [Compound 138], above 10 µM.
In the case of `CNc1cc(C)nc(Nc2ccc(OC)c(-n3nnc(CN(C)C)c3C)c2)n1` [Compound 139] it was above 10 µM.
The result for `CCN(CC)Cc1cn(-c2cc(Nc3nc(C)cc(NC)n3)ccc2OC)nn1` [Compound 143] reads 0.1 to 1 µM.
`CNc1cc(C)nc(Nc2ccc(OC)c(-n3cc4cc(C)ccc4n3)c2)n1` [Compound 144]: the IC50 lay within 1 to 10 µM.
With `CNc1cc(C)nc(Nc2ccc(OC)c(-n3cc4cc(C5CC5)ccc4n3)c2)n1` [Compound 145], the IC50 was above 10 µM.
